In patent publication US20240174727A1, “LONG-ACTING NATRIURETIC PEPTIDES AND USES THEREOF” (Eli Lilly and Company, priority 2022, published 2024) one finds EC50 data, which are given here for five compounds.

The experiment addresses T1, rat NPRA (Rattus norvegicus, UniProt P18910).
T1 construct: Full-Length cDNA Cloning and Generation of Cell Lines Overexpressing Natriuretic Peptide Receptors (NPRs); expressed in transfected cells; host or cells: Jump-in T-Rex HEK293 cells, pJTI R4 CMV-TO MCS pA vector, tetracycline induction
T1 sequence (P18910 29-1057): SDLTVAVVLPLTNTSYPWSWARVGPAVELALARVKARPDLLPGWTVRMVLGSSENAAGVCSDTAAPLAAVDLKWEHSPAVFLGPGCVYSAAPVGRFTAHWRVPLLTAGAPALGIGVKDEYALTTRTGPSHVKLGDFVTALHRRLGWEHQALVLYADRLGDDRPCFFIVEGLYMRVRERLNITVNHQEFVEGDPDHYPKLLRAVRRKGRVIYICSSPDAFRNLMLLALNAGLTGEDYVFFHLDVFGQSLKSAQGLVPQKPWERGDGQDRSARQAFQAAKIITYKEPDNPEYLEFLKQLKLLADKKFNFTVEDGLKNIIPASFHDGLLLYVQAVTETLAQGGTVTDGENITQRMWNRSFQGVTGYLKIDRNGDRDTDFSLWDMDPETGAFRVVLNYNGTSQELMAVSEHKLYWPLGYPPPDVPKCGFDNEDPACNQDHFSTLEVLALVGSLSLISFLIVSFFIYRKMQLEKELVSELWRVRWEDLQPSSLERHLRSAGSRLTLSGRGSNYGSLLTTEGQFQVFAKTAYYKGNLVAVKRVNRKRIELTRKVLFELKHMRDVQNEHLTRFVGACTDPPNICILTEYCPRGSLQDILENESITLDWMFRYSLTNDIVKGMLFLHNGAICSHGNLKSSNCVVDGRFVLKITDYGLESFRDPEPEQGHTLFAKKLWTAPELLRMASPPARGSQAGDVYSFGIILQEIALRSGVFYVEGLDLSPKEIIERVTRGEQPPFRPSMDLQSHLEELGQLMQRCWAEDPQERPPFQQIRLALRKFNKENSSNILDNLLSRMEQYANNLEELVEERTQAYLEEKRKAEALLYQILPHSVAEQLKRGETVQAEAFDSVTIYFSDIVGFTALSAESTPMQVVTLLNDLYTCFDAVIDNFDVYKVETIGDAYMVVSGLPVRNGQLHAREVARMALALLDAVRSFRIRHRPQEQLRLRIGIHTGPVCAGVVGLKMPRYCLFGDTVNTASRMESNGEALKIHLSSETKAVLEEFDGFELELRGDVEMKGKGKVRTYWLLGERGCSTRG
The experiment is described as follows: Rat NPRA cGMP activity assay (HTRF) in HEK293 cells overexpressing NPRA. It is filed as cell-based. How it is done:
All sequences were verified by full-length sequencing performed by ACGT DNA Sequencing Services (Wheeling, IL). The target cDNA was cloned into pJTI R4 CMV-TO MCS pA vector and then co-transfected with pJT1R4 Int vector into Jump-in™ T-Rex™ HEK293 cells for mammalian inducible expression using Jump-in™ T-Rex™ HEK293 kit and Lipofectamine LTX and Plus Reagent following manufacturer's protocols, as briefly described below.
Jump-in™ T-Rex™ HEK293 cells were plated in a BioCOAT® poly-D-lysine coated 6-well plate (Becton Dickinson, cat no. 354413) at 1 million cells/well in 2 mL culture medium and incubated for 18 h at 37° C. and 5% CO2 to 50-70% confluence. A cDNA mix was made in a 50 mL tube by adding 1.5 μg target cDNA, 1.5 μg pJT1R4 Int vector, 3 μL Plus Reagent, and 300 μL Opti-MEM I sequentially into the tube. A reagent mix was made in a separate 50 mL tube by adding 7.5 μL Lipofectamine LTX into 300 μL Opti-MEM I. The mixtures were incubated for 5 min at room temperature. The cDNA mix was then transferred into the reagent mix, mixed well, and incubated for additional 30 min at room temperature. A 500 μL of cDNA/Lipofectamine complex was then transferred to the wells of the cell plate in which the culture medium was changed to 2 mL of transfection medium containing DMEM with 4.5 g/L D-glucose supplemented with 10% FBS-HI and 20 mM HEPES. Transfected cells were cultured for 48 h in an incubator at 37° C. and 5% CO2. A subclone or pool from each overexpressing cell line was maintained in culture medium with the addition of 2 mg/mL G418 sulfate for the clone selection based on its built-in resistance to G418 sulfate for at least 3 weeks with medium changed every 2-3 days.
NPRs were overexpressed in T-Rex™ HEK293 cells following the induction with 300 ng/mL tetracycline in culture medium for 48 h. Induced cell lines in an exponential growth phase were treated with 0.05% trypsin-EDTA for a few seconds at room temperature, harvested in cell medium containing FBS to neutralize the trypsin, counted, and cryopreserved at the density of 2 million cells/mL in cell preservation solution containing FBS-HI with 5% DMSO. Cryopreserved cells were stored at −80° C. for a few days prior to transferring to a liquid nitrogen tank. Induced cell lines were then used for suspension assays to measure the activity of polypeptides to stimulate cGMP production in cGMP assays or for the preparation of cell membranes to measure the binding activity of polypeptides in competitive radioligand binding assays, as described below.
Test polypeptides were added starting at 10 μM concentration and at 10-fold decreasing concentrations to obtain 8-point concentration-response curves (i.e., 10 μM to 1 pM). The quantity of cGMP generated was detected using HTRF® technology and normalized to maximum amount produced by 100 nM amidated rat ANP and the minimum amount produced by assay buffer. Detailed steps are outlined below.
Stock solutions of test polypeptides (2 mM) dissolved in DMSO were first diluted 100-fold in assay buffer containing HBSS with Ca^2+ and Mg^2+, 5 mM HEPES, 0.5 mM IBMX, and 0.1% BSA or 0.1% casein (pH 7.4). The polypeptides were further serially diluted in 1:10 dilution steps in assay buffer containing 0.1% BSA or 0.1% casein to generate 8-point 2× working stock solutions ranging from 20 μM to […].
A 10 μL cell suspension containing 4000 cells was plated in Costar® half-area white opaque 96-well plates (Corning, cat no. 3693). Then 10 μL of assay buffer (basal activity), 200 nM of amidated rat ANP (maximum activity) or 2× working stock solutions of test polypeptides were transferred into the plate. Final concentration of DMSO in each well was 0.5%. The plate was shaken for 15 sec and then incubated for 40 min at room temperature.
The cGMP generated was measured using cGMP kit following the manufacturer's directions, as described below.
For orientation: In TR-FRET formats the signal depends on donor and acceptor labels being close together.

Where [1] appears, read: assay buffer with 0.1% casein, read-out: cGMP Assay (EC50, pM) w/Casein rNPRA.

Like-named read-outs stand apart in the source and are kept apart here. Numbered stars: 1 amine (or outer) side, 2 acyl side, 3 side chain; on linkers, the order of the positions; unused ones are H or OH. Bridge positions count the residues as written; N and C are the ends. Square brackets hold non-standard residues; d marks the D form. * marks the point of attachment. PEG24 = NCCOCCOCCOCCOCCOCCOCCOCCOCCOCCOCCOCCOCCOCCOCCOCCOCCOCCOCCOCCOCCOCCOCCOCCOCCC(=O)O; C20 diacid = O=C(O)CCCCCCCCCCCCCCCCCCC(=O)*; γGlu = O=C(O)[C@H](CCC(=O)[*:2])N[*:1]; CH2 = C([*:1])[*:2]

With `CC[C@H](C)[C@@H]1NC(=O)[C@H](CCCNC(=N)N)NC(=O)[C@H](CC(=O)O)NC(=O)[C@H]([C@@H](C)CC)NC(=O)[C@H](CCCNC(=N)N)NC(=O)[C@H](CCCCN)NC(=O)CNC(=O)[C@H](Cc2ccccc2)NC(=O)[C@@H](NC(=O)[C@H](CO)NC(=O)[C@H](CO)NC(=O)[C@H](CCCNC(=N)N)NC(=O)[C@H](CCCNC(=N)N)NC(=O)[C@H](Cc2ccncc2)NC(=O)[C@H](CO)NC(=O)CCOCCOCCOCCOCCOCCOCCOCCOCCOCCOCCOCCOCCOCCOCCOCCOCCOCCOCCOCCOCCOCCOCCOCCOCCNC(=O)CNC(=O)[C@H](CCCCN)NC(=O)[C@H](CCC(=O)O)NC(=O)[C@H](CCCCN)NC(=O)[C@H](CCC(=O)O)NC(=O)[C@H](CCCCN)NC(=O)[C@H](CCC(=O)O)NC(=O)CC[C@H](NC(=O)CCCCCCCCCCCCCCCCCCC(=O)O)C(=O)O)CSCSC[C@@H](C(=O)N2CCC[C@H]2C(=O)N[C@@H](CO)C(=O)N[C@@H](Cc2ccccc2)C(=O)N[C@@H](CCCNC(=N)N)C(=O)N[C@@H](Cc2c[nH]cn2)C(=O)NCC(=O)NCC(=O)N[C@@H](CCCCN)C(=O)N[C@@H](CO)C(=O)N[C@@H](CO)C(=O)NCC(=O)N[C@@H](C)C(=O)N2CCC[C@H]2C(=O)N2CCC[C@H]2C(=O)N2CCC[C@H]2C(=O)N[C@@H](CO)C(N)=O)NC(=O)CNC(=O)[C@H](CC(C)C)NC(=O)CNC(=O)[C@H](CO)NC(=O)[C@H](CCC(N)=O)NC(=O)[C@H](Cc2c[nH]cn2)NC(=O)CNC1=O` [Example 109], the EC50 came to 276000 pM (assay buffer with 0.1% BSA, read-out: cGMP Assay (EC50, pM) w/BSA rNPRA) and 16800 pM under setting [1].

In turn, “{C20 diacid-γGlu}-EKEKEKGEKPRSSCFGKRIDRIGHQSGLGCPSFRHGSGSPSSGAPPPSG-NH2 (linker 14-30 via CH2) [Example 131]” gave an EC50 (cGMP Assay (EC50, pM) w/Casein rNPRA, assay buffer with 0.1% casein) of 2160 pM.

Regarding `CC[C@H](C)[C@@H]1NC(=O)[C@H](CCCNC(=N)N)NC(=O)[C@H](CC(=O)O)NC(=O)[C@H]([C@@H](C)CC)NC(=O)[C@H](CCCNC(=N)N)NC(=O)CNC(=O)CNC(=O)[C@H](Cc2ccccc2)NC(=O)[C@@H](NC(=O)[C@H](CO)NC(=O)[C@H](CO)NC(=O)[C@H](CCCNC(=N)N)NC(=O)[C@H](CCCNC(=N)N)NC(=O)[C@H](Cc2ccncc2)NC(=O)[C@H](CO)NC(=O)CCOCCOCCOCCOCCOCCOCCOCCOCCOCCOCCOCCOCCNC(=O)CNC(=O)[C@H](CCCCN)NC(=O)[C@H](CCC(=O)O)NC(=O)[C@H](CCCCN)NC(=O)[C@H](CCC(=O)O)NC(=O)[C@H](CCCCN)NC(=O)[C@H](CCC(=O)O)NC(=O)CC[C@H](NC(=O)CCCCCCCCCCCCCCCCCCC(=O)O)C(=O)O)CSCSC[C@@H](C(=O)N2CCC[C@H]2C(=O)N[C@@H](CO)C(=O)N[C@@H](Cc2ccccc2)C(=O)N[C@@H](CCCNC(=N)N)C(=O)N[C@@H](Cc2c[nH]cn2)C(=O)NCC(=O)NCC(=O)N[C@@H](CCCCN)C(=O)N[C@@H](CO)C(=O)N[C@@H](CO)C(=O)NCC(=O)N[C@@H](C)C(=O)N2CCC[C@H]2C(=O)N2CCC[C@H]2C(=O)N2CCC[C@H]2C(=O)N[C@@H](CO)C(N)=O)NC(=O)CNC(=O)[C@H](CC(C)C)NC(=O)CNC(=O)[C@H](CO)NC(=O)[C@H](CCC(N)=O)NC(=O)[C@H](Cc2c[nH]cn2)NC(=O)CNC1=O` [Example 82], under setting [1], the EC50 is 25400 pM.

Consider “{C20 diacid-γGlu}-EKEKEKG[PEG24]EKPRSSCFGKGIDRIGHQSGLGCPSFRHSGSPSSGAPPPSG-NH2 (linker 15-31 via CH2) [Example 133, HOOC-(CH2)18-CO-(γGlu)-EKEKEKG-PEG24-EKPRSS[CFGKGIDRIGHQSGLGCJPSFRHSGSPSSGAPPPSG-NH2]”, for which, under setting [1], the EC50 was determined as 581000 pM.

Where the note is “cGMP Assay (EC50, pM) w/BSA rNPRA, assay buffer with 0.1% BSA”, `CC[C@H](C)[C@@H]1NC(=O)[C@H](CCCNC(=N)N)NC(=O)[C@H](CC(=O)O)NC(=O)[C@H]([C@@H](C)CC)NC(=O)[C@H](CCCNC(=N)N)NC(=O)[C@H](CCCCN)NC(=O)CNC(=O)[C@H](Cc2ccccc2)NC(=O)[C@@H](NC(=O)[C@H](CO)NC(=O)[C@H](CO)NC(=O)[C@H](CCCNC(=N)N)NC(=O)[C@H](CCCNC(=N)N)NC(=O)[C@H](Cc2ccncc2)NC(=O)[C@H](CO)NC(=O)COCCOCCNC(=O)COCCOCCNC(=O)COCCOCCNC(=O)COCCOCCNC(=O)COCCOCCNC(=O)COCCOCCNC(=O)CNC(=O)[C@H](CCCCN)NC(=O)[C@H](CCC(=O)O)NC(=O)[C@H](CCCCN)NC(=O)[C@H](CCC(=O)O)NC(=O)[C@H](CCCCN)NC(=O)[C@H](CCC(=O)O)NC(=O)CC[C@H](NC(=O)CCCCCCCCCCCCCCCCCCC(=O)O)C(=O)O)CSCSC[C@@H](C(=O)N2CCC[C@H]2C(=O)N[C@@H](CO)C(=O)N[C@@H](Cc2ccccc2)C(=O)N[C@@H](CCCNC(=N)N)C(=O)N[C@@H](Cc2c[nH]cn2)C(=O)NCC(=O)N[C@@H](CO)C(=O)NCC(=O)N[C@@H](CO)C(=O)N2CCC[C@H]2C(=O)N[C@@H](CO)C(=O)N[C@@H](CO)C(=O)NCC(=O)N[C@@H](C)C(=O)N2CCC[C@H]2C(=O)N2CCC[C@H]2C(=O)N2CCC[C@H]2C(=O)N[C@@H](CO)C(=O)NCC(N)=O)NC(=O)CNC(=O)[C@H](CC(C)C)NC(=O)CNC(=O)[C@H](CO)NC(=O)[C@H](Cc2ccc(O)cc2)NC(=O)[C@H](Cc2c[nH]cn2)NC(=O)CNC1=O` [Example 117] returned an EC50 of 200000 pM.
